The source of these data is paper PMC7239840, “A traffic light enzyme: acetate binding reversibly switches chlorite dismutase from a red- to a green-colored heme protein” (Journal of Biological Inorganic Chemistry, 2020).

In experiment [1] the target is T1, chlorite dismutase (AoCld) (Azospira oryzae, UniProt E2DI02). Put plainly: biochemical.
Experiment [2] deals with T1, chlorite dismutase (AoCld). Put plainly: UV-visible equilibrium binding titration (Soret band), pH […]; EPR with […] hyperfine splitting. Details: recombinant, N-terminal His6 tag.
The target of experiment [3] is T2, chlorite dismutase (AoCld) R183A (Azospira oryzae, UniProt E2DI02, R217A).
T2 construct: recombinant, N-terminal His6 tag
The experiment in a line: ligand binding to the R183A mutant (Fig. S7).

Experiment [4] concerns the target T1, chlorite dismutase (AoCld). Put plainly: UV-visible equilibrium binding titration (Soret band), pH […]; EPR low-spin adduct. Details: recombinant, N-terminal His6 tag.

T1 sequence (E2DI02 35-282): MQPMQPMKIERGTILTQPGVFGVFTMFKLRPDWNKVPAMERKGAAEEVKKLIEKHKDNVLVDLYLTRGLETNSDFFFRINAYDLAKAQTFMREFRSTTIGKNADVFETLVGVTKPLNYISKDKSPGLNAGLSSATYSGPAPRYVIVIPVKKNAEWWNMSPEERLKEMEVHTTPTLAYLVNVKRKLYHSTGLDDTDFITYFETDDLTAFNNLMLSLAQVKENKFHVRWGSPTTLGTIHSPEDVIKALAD
T2 sequence (E2DI02 35-282, stated change not applied): as the sequence (E2DI02 35-282) above

In general, Kd refers to the constant that tells how readily two partners part at equilibrium. `CC(=O)O` [Ac, acetate] displayed a dissociation constant (Kd) in experiment [1] of 17.5 ± 0.5 mM.

Take `F` [F^−, fluoride]: the Kd in experiment [2] was 15.6 ± 1.9 mM.

Regarding `c1c[nH]cn1` [Im, imidazole], the “ligand binding to the R183A mutant (Fig. S7)” value in experiment [3] was “Mutagenesis of Arg183 to Ala results in the complete loss of affinity for fluoride and acetate, but not for imidazole”. For the same molecule, the Kd in experiment [4] is 0.0105 ± 0.0024 mM.
